Assays:
T47D cells = assay: Proliferation / arrest in Go/G1 in T47D cells; format: cell-based, human; parameters: key to Arrest in Go/G1: ↓/↑ - decreased/increased action of tested compounds.; ↓/↑ - decreased/increased action of tested compounds; settings: Proliferation; T47D cells; statistical significance not always reached
GR = biological target: T1, GR (Homo sapiens, UniProt P04150); assay: GR transactivation (HELA, MMTV-LUC); format: cell-based; parameters: HELA cells line carrying endogenous glucocorticoid protein; endogenous in cells; host or cells: HELA, stably transfected with the reporter only; settings: comparative transactivation profile; read-out: Potency, GR Antagonism
T1 sequence (P04150 1-777): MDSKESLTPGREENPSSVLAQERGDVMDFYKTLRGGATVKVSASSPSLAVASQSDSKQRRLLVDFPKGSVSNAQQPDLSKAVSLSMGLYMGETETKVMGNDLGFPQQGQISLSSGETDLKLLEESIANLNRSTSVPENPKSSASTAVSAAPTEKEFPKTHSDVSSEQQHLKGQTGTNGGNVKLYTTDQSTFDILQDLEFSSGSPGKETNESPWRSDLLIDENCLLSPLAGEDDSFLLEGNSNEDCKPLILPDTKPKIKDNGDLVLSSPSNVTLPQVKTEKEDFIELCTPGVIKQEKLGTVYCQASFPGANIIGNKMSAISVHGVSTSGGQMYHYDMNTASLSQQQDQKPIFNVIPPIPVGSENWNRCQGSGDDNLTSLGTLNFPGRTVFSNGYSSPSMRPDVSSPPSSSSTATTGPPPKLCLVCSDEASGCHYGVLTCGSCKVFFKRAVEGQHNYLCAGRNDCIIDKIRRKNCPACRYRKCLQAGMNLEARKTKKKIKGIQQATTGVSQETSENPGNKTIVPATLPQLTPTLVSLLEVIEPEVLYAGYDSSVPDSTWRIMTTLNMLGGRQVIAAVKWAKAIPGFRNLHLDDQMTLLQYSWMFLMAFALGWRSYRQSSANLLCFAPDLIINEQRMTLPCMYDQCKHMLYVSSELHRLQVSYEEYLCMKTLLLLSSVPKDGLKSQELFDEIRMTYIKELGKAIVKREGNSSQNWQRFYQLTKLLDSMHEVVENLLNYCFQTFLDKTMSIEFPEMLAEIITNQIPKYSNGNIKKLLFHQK
Experimental: HELA cells line carrying endogenous glucocorticoid protein were cultured in order to study gene expression on the transcriptional level under the influence of the tested compounds. The cells were transfected with reporter vector MMTV/LUC. To produce high protein overexpression, stable transfection was carried out. […] Agonist and antagonist properties of EC313 toward tested receptor GR were analyzed using luminescence detection.
In order to develop the transfection assay, plasmids were generated and isolated. Vector pGL4.36 coding the glucocorticoid receptor responsive element MMTV and firefly luciferase reporter vector [luc2P/Hygro] were used as a reporter system (pGL4.36-MMTV/LUC). The cells were transfected with reporter vector MMTV/LUC.
stable transfection with reporter vector was performed on a 6-well plate (0.5x10^6 cells per well) in culture medium (EMEM, 10% FBS, NEAA, sodium […], L-glutamine). Briefly, according to the transfection procedure, cells were passaged, and they grew in a culture medium containing an appropriate concentration of the antibiotic (Hygromycin 150 µg/mL). Resistance to Hygromycin gene, which had been transfected together with the reporter vector to the cells, only allowed positively transfected cells to grow in this medium. Therefore, growing cell clones were selected for further steps as stable transfectants.
After 24h incubation of cells with the tested compounds, luciferase activity was measured using VICTOR™ X Multilabel Plate Reader -Perkin Elmer.

PR-B – NCoR = biological target: T2, PR-B – NCoR (Homo sapiens, UniProt P06401); assay: PR-B – NCoR interaction, two-hybrid system; format: cell-based
T2 construct: expressed in transfected cells
Text: The active recruitment of the nuclear corepressor NCoR results in transcriptional inactivity of the PR. So, the potency of PR ligands to induce the interaction of PR with NCoR provides information on the antagonistic potency of the ligand. Therefore, the capacity of EC313 to induce the interaction of PR-B with the corepressor NCoR in comparison with reference ligands was studied. All test compounds except the receptor agonist Promegestone induced PR to interact with NCoR.
Figure 11 (A) PR-B interaction with NCoR using a two-hybrid assay. Dose response curve. […] (B) Liganded PR-Binteraction with c-SRC kinase. The data presented are from five independent experiments. Signals are represented as mean luminescence ± SD normalized to maximal promegestone activity equal to 100%.

[1] = test system: estrogen-primed endometrium of immature rabbits; assay: McPhail assay, estrogen-primed rabbit endometrium; format: in vivo; settings: for Score 2 for PR-agonistic activity / Score 2 for PR-antagonistic activity: dose giving McPhail score 2; for Score 2 for PR-antagonistic activity: concomitant progesterone (1 g/animal/day [sic] s.c.)
Experimental: The secretory transformation of estrogen-primed endometrium of immature rabbits indicates the strength of the progestagenic action on the endometrium of the chosen test compound. The simultaneous administration of test compounds with progesterone can indicate potential anti-progestagenic actions.
Female rabbits received daily s.c. injections of 5.0 µg 17β-Estradiol/per animal for 6 days leading to the proliferation of the endometrium. From day 7 to day 13 the animals received doses of vehicle, EC313 (1 to 30 mg/animal/day s.c) or progesterone. On day 14, the animals were sacrificed and the uteri were processed for histological evaluation and the secretory endometrial transformation was rated according to a modified McPhail score (1 – 4).
The rating scale ranges from 1 (no or very low secretory, transformation, or agonistic activity) to 4 (highest secretory, transformation, or agonistic activity). The McPhail score of 2 (median) was selected for the comparison. The antagonistic activity was measured by the concomitant administration of progesterone ([…] s.c.).

Cyclin D1 promotor = assay: Activation of Cyclin D1 promotor; format: cell-based, human; settings: Other signal cascades
cycling guinea pigs = assay: Ovulation inhibition in cycling guinea pigs; format: in vivo, guinea pig; settings: cycle days 10-17
Experimental: Test compounds were administered once daily from cycle days 10-17 by s. c. injection using 0.2 mL vehicle (benzyl-benzoate/castor oil, ratio 1 + 4 v/v). The time of autopsy (day 18) was 24-48h after the expected ovulation at the end of the treatment cycle. This design permits the study of the effects of the tested compounds on the expected ovulation. Fresh CL were evidence of a recent ovulation.

T2 sequence (P06401 whole entry): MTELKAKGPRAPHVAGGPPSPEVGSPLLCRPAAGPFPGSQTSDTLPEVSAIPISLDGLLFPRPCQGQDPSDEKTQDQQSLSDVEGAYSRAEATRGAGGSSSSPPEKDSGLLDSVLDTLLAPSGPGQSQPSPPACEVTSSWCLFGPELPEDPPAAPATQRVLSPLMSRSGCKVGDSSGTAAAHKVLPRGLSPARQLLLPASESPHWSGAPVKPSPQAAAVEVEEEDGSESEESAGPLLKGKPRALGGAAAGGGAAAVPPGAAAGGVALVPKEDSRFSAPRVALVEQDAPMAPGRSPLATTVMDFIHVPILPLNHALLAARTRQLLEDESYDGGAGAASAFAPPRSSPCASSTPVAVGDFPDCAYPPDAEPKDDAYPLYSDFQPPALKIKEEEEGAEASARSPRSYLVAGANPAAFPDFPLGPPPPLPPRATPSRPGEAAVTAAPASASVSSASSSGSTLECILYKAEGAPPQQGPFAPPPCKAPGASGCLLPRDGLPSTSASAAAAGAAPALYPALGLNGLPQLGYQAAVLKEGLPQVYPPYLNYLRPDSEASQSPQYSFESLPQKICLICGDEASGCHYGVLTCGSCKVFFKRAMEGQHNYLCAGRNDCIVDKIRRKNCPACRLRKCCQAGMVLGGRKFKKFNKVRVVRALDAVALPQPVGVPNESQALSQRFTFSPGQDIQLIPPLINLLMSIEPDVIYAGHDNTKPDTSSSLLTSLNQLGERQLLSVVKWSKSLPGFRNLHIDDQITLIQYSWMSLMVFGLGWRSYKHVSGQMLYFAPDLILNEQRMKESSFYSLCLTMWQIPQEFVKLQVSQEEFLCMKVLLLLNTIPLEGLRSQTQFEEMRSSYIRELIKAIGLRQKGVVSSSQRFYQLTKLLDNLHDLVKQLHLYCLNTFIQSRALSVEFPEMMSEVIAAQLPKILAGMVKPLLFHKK
T2 sequence (O75376 whole entry partner): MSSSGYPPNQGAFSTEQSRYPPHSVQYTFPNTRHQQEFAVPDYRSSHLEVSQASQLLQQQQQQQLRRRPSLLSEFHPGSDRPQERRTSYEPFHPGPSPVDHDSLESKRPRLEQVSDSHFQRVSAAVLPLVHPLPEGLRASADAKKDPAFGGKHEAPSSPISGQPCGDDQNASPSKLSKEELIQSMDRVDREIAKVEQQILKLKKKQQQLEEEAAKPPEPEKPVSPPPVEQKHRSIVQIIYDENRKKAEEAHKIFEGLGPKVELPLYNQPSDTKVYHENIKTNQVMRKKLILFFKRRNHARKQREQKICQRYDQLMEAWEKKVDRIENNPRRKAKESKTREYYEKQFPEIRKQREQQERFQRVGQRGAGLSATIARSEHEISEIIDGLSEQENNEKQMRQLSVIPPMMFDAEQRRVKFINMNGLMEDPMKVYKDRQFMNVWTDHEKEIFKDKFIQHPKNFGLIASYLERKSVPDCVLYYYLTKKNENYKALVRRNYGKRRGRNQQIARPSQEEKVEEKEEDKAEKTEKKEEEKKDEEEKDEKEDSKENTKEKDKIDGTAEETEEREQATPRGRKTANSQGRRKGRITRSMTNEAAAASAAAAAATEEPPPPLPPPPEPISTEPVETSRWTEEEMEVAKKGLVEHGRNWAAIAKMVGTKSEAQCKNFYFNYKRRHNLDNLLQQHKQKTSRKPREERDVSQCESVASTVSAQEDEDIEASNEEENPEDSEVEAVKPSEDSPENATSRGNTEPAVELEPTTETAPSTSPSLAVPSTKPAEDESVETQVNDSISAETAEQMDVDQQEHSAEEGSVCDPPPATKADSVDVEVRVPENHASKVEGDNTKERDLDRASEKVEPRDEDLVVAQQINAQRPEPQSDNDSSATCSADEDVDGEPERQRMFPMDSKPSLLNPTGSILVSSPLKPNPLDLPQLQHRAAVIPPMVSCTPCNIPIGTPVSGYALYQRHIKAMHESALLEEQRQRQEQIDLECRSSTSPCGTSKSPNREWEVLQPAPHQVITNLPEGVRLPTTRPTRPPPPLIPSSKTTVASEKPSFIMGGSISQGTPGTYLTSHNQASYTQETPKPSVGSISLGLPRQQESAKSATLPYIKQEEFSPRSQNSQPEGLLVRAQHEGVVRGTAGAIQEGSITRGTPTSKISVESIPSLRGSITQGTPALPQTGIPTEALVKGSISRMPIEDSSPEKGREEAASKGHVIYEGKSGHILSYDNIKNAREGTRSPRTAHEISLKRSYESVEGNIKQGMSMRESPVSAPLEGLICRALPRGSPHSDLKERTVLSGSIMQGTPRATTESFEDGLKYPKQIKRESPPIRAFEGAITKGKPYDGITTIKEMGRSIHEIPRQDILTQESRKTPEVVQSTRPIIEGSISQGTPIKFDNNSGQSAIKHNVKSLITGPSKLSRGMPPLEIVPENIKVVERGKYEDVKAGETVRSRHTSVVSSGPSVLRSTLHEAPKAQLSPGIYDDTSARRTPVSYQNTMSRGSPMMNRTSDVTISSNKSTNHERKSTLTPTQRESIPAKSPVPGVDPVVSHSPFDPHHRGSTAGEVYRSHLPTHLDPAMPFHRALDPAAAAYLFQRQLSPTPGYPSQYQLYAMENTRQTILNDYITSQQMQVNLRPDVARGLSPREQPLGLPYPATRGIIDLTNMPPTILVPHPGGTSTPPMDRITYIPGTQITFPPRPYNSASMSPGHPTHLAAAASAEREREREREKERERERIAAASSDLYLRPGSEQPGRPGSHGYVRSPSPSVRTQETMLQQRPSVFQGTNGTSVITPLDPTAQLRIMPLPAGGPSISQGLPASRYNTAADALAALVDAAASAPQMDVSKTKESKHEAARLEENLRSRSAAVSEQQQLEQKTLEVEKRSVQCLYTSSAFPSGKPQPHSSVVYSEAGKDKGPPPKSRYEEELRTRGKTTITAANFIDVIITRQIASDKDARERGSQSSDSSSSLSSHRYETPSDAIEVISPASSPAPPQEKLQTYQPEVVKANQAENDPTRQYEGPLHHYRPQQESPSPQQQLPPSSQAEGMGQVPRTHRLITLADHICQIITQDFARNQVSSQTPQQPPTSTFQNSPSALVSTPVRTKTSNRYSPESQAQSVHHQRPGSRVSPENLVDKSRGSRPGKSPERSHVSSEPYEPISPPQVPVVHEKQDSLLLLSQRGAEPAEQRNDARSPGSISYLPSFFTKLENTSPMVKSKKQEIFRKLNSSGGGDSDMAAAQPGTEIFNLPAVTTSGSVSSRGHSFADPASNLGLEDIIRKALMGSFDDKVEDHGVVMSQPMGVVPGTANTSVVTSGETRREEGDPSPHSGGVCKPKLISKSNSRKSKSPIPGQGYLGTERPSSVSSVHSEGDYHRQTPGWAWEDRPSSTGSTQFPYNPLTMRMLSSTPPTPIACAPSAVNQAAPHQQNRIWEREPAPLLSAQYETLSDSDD

Compound	Arrest in Go/G1 (T47D cells)	Score 2 for PR-agonistic activity [1]	Score 2 for PR-antagonistic activity [1]	Number of ovulations vs. number of inseminated females (cycling guinea pigs; 3.0 mg/animal/day s.c.)	Number of ovulations vs. number of inseminated females (cycling guinea pigs; 10.0 mg/animal/day s.c.)	further results
COC[C@]1(OC)CC[C@H]2[C@@H]3CCC4=CC(=O)CCC4=C3[C@@H](c3ccc(/C=N/O)cc3)C[C@@]21C [Asoprisnil, reference compound]	↑	~ 0.2 mg/animal/day s.c.	~ 0.3 mg/animal/day s.c.			IC50 (GR): 1230 nM; efficacy relative to Ulipristal acetate, NCoR interaction (PR-B – NCoR): 56%; induction of PR interaction with NCoR (PR-B – NCoR): limited ability to induce progesterone receptor interaction with NCoR; Quotient between antagonistic and agonistic action ([1]; McPhail score 2 doses): ~ 1.5
C[C@]12C[C@H](c3ccc(-n4ccnc4)cc3)C3=C4CCC(=O)C=C4CCC3C1CC[C@@]2(O)C(F)(F)C(F)(F)F (stereo partly shown) [EC317]	↑			0/6	0/6	Activation of Cyclin D1 promotor (Cyclin D1 promotor): unclear*; Number of ovulations vs. number of inseminated females (cycling guinea pigs; 0.1 mg/animal/day s.c.): 2/3; Number of ovulations vs. number of inseminated females (cycling guinea pigs; 0.3 mg/animal/day s.c.): 3/3; Number of ovulations vs. number of inseminated females (cycling guinea pigs; 1.0 mg/animal/day s.c.): 0/3
CC#C[C@]1(O)CC[C@H]2[C@@H]3CCC4=CC(=O)CCC4=C3[C@@H](c3ccc(N(C)C)cc3)C[C@@]21C [Mifepristone, reference compound]	↑			2/5	0/3	Number of ovulations vs. number of inseminated females (cycling guinea pigs; 1.0 mg/animal/day s.c.): 4/5
CC(=O)[C@H]1CC[C@H]2[C@@H]3CCC4=CC(=O)CC[C@]4(C)[C@H]3CC[C@]12C [Progesterone]		~ 0.1 mg/animal/day s.c.	n.a. “pure” agonist			
CCC(=O)[C@@]1(C)CC[C@H]2[C@@H]3CCC4=CC(=O)CCC4=C3CC[C@@]21C [Promegestone, reference compound]	↓					induction of PR interaction with NCoR (PR-B – NCoR): does not induce NCoR interaction
C[C@]12C[C@H](c3ccc(S(C)(=O)=O)cc3)C3=C4CCC(=O)C=C4CC[C@H]3[C@@H]1CC[C@@]2(O)C(F)(F)C(F)(F)F [Vilaprisan, reference compound]		n.a.;”pure” antagonist	< 0.3 mg/animal/day s.c.	0/5	0/4	IC50 (GR): 629 nM
Telapristone acetate [CDB 4124 Telapristone acetate, reference compound]					1/3	
